Laboratory results as given in paper PMC10239507, “Development of allosteric and selective CDK2 inhibitors for contraception with negative cooperativity to cyclin binding” (Nature Communications, 2023).

How the values were obtained:
Test in all cases: biochemical
[1] = target: T1, 371 kinases (kinase named in each endpoint) (Homo sapiens, UniProt Q9UHD2); details: TBK1
T1 construct: purchased Reaction Biology

[2] = target: T2, 371 kinases (kinase named in each endpoint) (Homo sapiens, UniProt P09619); details: PDGFRB
T2 construct: purchased Reaction Biology

[3] = target: T3, 371 kinases (kinase named in each endpoint) (Homo sapiens, UniProt P51813); details: BMX/ETK
T3 construct: purchased Reaction Biology

[4] = target: T4, 371 kinases (kinase named in each endpoint) (Homo sapiens, UniProt O75582); details: MSK1/RPS6KA5
T4 construct: purchased Reaction Biology

[5] = target: T5, 371 kinases (kinase named in each endpoint) (Homo sapiens, UniProt Q9H4B4); details: PLK3
T5 construct: purchased Reaction Biology

[6] = target: T6, 371 kinases (kinase named in each endpoint) (Homo sapiens, UniProt Q05513); details: PKCZETA
T6 construct: purchased Reaction Biology

[7] = target: T7, 371 kinases (kinase named in each endpoint) (Homo sapiens, UniProt Q86UX6); details: STK32C/YANK3
T7 construct: purchased Reaction Biology

[8] = target: T8, 371 kinases (kinase named in each endpoint) (Homo sapiens, UniProt P36894); details: ALK3/BMPR1A
T8 construct: purchased Reaction Biology

[9] = target: T9, 371 kinases (kinase named in each endpoint) (Homo sapiens, UniProt P07332); details: FES/FPS
T9 construct: purchased Reaction Biology

[10] = target: T10, 371 kinases (kinase named in each endpoint) (Homo sapiens, UniProt Q9H2X6); details: HIPK2
T10 construct: purchased Reaction Biology

[11] = target: T11, 371 kinases (kinase named in each endpoint) (Homo sapiens, UniProt P07949); details: RET
T11 construct: purchased Reaction Biology

[12] = target: T12, 371 kinases (kinase named in each endpoint) (Homo sapiens, UniProt P52564); details: MKK6
T12 construct: purchased Reaction Biology

[13] = target: T13, 371 kinases (kinase named in each endpoint) (Homo sapiens, UniProt Q32MK0); details: MYLK3
T13 construct: purchased Reaction Biology

[14] = target: T14, 371 kinases (kinase named in each endpoint) (Homo sapiens, UniProt Q9UPZ9); details: LCK2/ICK
T14 construct: purchased Reaction Biology

[15] = target: T15, 371 kinases (kinase named in each endpoint) (Homo sapiens, UniProt P41240); details: CSK
T15 construct: purchased Reaction Biology

[16] = target: T16, 371 kinases (kinase named in each endpoint) (Homo sapiens, UniProt Q96GD4); details: AURORA B
T16 construct: purchased Reaction Biology

[17] = target: T17, 371 kinases (kinase named in each endpoint) (Homo sapiens, UniProt P16591); details: FER
T17 construct: purchased Reaction Biology

[18] = target: T18, 371 kinases (kinase named in each endpoint) (Homo sapiens, UniProt Q9BXA6); details: SSTK/TSSK6
T18 construct: purchased Reaction Biology

[19] = target: T19, 371 kinases (kinase named in each endpoint) (Homo sapiens, UniProt Q16566); details: CAMK4
T19 construct: purchased Reaction Biology

[20] = target: T20, 371 kinases (kinase named in each endpoint) (Homo sapiens, UniProt P57078); details: RIPK4
T20 construct: purchased Reaction Biology

[21] = target: T21, 371 kinases (kinase named in each endpoint) (Homo sapiens, UniProt Q9Y3S1); details: WNK2
T21 construct: purchased Reaction Biology

[22] = target: T22, 371 kinases (kinase named in each endpoint) (Homo sapiens, UniProt O94804); details: LOK/STK10
T22 construct: purchased Reaction Biology

[23] = target: T23, 371 kinases (kinase named in each endpoint) (Homo sapiens, UniProt P49760); details: CLK2
T23 construct: purchased Reaction Biology

[24] = target: T24, 371 kinases (kinase named in each endpoint) (Homo sapiens, UniProt Q8IVH8); details: GLK/MAP4K3
T24 construct: purchased Reaction Biology

[25] = target: T25, 371 kinases (kinase named in each endpoint) (Homo sapiens, UniProt P20794); details: MAK
T25 construct: purchased Reaction Biology

[26] = target: T26, 371 kinases (kinase named in each endpoint) (Homo sapiens, UniProt P51955); details: NEK2
T26 construct: purchased Reaction Biology

[27] = target: T27, 371 kinases (kinase named in each endpoint) (Homo sapiens, UniProt Q13464); details: ROCK1
T27 construct: purchased Reaction Biology

[28] = target: T28, 371 kinases (kinase named in each endpoint) (Homo sapiens, UniProt P35626); details: GRK3
T28 construct: purchased Reaction Biology

[29] = target: T29, 371 kinases (kinase named in each endpoint) (Homo sapiens, UniProt Q00535)
T29 construct: purchased Reaction Biology

[30] = target: T30, 371 kinases (kinase named in each endpoint) (Homo sapiens, UniProt P00533); details: EGFR
T30 construct: purchased Reaction Biology

[31] = target: T31, 371 kinases (kinase named in each endpoint) (Homo sapiens, UniProt P53350); details: PLK1
T31 construct: purchased Reaction Biology

[32] = target: T32, 371 kinases (kinase named in each endpoint) (Homo sapiens, UniProt P37023); details: ALK1/ACVRL1
T32 construct: purchased Reaction Biology

[33] = target: T33, 371 kinases (kinase named in each endpoint) (Homo sapiens, UniProt Q16539); details: P38A/MAPK14
T33 construct: purchased Reaction Biology

[34] = target: T34, 371 kinases (kinase named in each endpoint) (Homo sapiens, UniProt Q9Y2U5); details: MEKK2
T34 construct: purchased Reaction Biology

[35] = target: T35, 371 kinases (kinase named in each endpoint) (Homo sapiens, UniProt O75116); details: ROCK2
T35 construct: purchased Reaction Biology

[36] = target: T36, 371 kinases (kinase named in each endpoint) (Homo sapiens, UniProt Q14012); details: CAMK1A
T36 construct: purchased Reaction Biology

[37] = target: T37, 371 kinases (kinase named in each endpoint) (Homo sapiens, UniProt Q99986); details: VRK1
T37 construct: purchased Reaction Biology

T29 sequence (Q00535 whole entry): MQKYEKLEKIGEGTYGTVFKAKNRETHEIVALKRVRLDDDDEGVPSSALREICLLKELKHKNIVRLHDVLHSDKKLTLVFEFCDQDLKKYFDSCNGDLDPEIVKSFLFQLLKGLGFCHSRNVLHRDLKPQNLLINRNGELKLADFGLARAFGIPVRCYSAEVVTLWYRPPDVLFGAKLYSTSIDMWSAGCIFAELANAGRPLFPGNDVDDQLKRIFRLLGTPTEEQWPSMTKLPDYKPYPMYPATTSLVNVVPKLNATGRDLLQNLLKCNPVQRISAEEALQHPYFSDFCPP
T34 sequence (Q9Y2U5 whole entry): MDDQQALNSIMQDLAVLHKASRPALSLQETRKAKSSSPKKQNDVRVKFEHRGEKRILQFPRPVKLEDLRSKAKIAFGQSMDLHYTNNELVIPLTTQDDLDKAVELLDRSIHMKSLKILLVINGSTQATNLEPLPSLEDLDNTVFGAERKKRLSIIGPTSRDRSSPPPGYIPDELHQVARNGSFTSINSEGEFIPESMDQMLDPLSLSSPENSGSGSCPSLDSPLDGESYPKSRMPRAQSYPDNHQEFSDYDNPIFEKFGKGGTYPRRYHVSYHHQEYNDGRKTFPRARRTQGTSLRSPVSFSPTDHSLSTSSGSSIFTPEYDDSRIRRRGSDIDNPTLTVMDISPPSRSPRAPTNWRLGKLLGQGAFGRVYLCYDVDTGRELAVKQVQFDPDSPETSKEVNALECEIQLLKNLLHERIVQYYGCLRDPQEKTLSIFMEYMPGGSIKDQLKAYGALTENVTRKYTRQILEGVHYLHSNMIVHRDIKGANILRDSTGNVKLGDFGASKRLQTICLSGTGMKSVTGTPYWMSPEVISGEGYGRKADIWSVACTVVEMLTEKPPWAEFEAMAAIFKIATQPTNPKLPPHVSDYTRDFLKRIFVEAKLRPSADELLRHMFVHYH
T10 sequence (Q9H2X6 whole entry): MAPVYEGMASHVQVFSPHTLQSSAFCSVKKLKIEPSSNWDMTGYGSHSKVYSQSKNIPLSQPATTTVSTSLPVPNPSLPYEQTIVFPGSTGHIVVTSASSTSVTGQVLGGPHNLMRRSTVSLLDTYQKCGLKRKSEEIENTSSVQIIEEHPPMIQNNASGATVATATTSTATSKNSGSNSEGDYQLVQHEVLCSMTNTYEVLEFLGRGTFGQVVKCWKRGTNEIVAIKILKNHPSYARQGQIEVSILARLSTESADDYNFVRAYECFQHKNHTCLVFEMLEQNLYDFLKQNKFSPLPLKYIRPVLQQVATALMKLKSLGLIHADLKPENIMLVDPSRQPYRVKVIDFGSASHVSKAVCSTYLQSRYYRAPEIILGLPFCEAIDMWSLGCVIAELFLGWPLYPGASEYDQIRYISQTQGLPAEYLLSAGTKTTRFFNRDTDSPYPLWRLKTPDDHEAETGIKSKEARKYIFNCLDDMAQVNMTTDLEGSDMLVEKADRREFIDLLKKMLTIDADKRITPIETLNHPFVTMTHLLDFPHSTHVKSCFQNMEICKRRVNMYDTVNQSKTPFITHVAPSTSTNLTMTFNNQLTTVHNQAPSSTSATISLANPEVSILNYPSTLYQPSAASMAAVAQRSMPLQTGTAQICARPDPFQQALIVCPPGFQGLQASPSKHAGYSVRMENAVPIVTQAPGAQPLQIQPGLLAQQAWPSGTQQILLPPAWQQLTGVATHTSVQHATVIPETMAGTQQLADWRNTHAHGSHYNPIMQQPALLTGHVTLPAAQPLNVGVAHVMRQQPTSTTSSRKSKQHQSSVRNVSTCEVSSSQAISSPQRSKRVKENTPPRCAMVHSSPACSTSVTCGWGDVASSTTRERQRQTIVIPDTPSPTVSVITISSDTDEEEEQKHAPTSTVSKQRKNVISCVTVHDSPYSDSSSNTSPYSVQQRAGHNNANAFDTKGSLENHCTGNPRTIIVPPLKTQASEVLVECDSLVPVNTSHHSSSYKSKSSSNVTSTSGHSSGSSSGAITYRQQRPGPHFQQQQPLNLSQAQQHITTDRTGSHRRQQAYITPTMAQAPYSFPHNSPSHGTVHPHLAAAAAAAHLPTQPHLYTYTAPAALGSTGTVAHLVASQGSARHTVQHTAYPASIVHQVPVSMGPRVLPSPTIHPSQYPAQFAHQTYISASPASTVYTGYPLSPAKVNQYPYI
T12 sequence (P52564 whole entry): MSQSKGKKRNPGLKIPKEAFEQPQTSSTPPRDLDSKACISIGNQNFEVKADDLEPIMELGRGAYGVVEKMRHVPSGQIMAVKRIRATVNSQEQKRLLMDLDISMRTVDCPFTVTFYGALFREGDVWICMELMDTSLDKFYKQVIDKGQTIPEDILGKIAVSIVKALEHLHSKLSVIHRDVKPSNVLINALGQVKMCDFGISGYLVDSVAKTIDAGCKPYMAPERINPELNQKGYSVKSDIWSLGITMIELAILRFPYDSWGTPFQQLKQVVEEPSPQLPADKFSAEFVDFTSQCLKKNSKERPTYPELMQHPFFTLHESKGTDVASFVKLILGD
T9 sequence (P07332 whole entry): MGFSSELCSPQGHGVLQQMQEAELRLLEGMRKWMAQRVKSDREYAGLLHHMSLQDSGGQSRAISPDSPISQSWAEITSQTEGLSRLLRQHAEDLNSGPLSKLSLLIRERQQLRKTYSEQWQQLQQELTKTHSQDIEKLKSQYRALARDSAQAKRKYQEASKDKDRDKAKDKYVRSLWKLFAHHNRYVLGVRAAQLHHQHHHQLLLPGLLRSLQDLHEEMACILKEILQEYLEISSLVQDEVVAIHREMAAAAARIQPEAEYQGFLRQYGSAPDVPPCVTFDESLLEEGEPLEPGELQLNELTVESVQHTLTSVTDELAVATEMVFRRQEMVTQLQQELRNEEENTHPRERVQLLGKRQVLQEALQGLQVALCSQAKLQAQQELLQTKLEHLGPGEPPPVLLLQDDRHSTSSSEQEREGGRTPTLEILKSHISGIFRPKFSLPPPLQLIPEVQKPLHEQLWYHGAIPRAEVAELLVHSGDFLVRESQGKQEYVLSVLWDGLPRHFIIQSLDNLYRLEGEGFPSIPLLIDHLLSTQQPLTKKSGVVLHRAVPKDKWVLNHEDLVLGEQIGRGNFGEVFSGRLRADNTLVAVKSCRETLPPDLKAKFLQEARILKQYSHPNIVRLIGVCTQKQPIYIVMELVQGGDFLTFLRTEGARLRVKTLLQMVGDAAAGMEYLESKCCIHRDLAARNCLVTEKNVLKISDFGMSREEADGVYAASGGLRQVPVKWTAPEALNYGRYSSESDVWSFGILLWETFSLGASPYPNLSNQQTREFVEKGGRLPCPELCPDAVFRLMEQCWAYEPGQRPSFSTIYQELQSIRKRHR
T4 sequence (O75582 whole entry): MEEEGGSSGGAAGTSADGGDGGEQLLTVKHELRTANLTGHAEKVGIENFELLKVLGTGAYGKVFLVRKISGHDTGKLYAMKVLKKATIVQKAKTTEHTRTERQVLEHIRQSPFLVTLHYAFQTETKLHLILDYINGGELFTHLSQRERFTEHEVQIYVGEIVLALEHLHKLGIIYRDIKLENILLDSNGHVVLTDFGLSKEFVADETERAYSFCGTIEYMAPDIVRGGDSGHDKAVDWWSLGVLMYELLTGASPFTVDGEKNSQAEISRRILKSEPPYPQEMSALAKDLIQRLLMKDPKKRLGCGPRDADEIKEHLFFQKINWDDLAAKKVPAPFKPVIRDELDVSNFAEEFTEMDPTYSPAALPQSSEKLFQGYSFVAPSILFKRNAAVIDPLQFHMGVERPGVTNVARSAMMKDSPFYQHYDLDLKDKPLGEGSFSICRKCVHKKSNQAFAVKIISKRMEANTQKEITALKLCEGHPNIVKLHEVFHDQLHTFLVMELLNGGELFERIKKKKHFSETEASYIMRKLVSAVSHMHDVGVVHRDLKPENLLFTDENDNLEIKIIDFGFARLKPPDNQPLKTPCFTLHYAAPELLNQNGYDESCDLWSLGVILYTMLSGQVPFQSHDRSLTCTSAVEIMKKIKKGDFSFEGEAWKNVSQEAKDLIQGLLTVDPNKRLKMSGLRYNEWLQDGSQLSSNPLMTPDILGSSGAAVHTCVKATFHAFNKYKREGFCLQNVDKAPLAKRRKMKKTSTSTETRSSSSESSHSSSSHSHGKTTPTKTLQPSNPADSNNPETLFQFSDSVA
T19 sequence (Q16566 whole entry): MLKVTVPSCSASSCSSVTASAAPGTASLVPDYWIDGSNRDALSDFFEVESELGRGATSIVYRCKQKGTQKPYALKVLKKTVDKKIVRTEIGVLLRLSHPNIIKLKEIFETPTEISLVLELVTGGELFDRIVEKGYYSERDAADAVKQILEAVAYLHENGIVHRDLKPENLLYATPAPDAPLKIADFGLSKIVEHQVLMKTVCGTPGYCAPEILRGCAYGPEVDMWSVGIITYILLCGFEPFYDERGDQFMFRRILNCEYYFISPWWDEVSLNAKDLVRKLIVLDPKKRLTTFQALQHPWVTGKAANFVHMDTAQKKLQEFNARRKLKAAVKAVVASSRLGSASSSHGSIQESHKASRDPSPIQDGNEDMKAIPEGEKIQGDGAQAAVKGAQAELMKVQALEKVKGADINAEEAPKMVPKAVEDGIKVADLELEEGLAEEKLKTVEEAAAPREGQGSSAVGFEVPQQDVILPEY
T7 sequence (Q86UX6 whole entry): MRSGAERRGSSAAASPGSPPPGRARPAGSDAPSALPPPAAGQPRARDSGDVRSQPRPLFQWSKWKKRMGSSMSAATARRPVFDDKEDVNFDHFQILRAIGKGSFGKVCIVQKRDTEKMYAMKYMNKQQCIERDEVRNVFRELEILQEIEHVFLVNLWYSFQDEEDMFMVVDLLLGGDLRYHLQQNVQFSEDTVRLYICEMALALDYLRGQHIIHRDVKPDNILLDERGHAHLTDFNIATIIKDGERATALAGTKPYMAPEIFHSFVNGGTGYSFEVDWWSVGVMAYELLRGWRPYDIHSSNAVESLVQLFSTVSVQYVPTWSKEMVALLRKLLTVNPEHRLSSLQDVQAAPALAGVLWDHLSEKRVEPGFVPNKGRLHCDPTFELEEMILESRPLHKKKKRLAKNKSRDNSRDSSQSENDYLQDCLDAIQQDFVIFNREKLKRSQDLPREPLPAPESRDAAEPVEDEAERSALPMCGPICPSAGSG

O=C(O)c1cc(C(F)(F)F)ccc1NCCc1c[nH]c2cc(Br)ccc12 [Compound 5, 2-((2-(6-Bromo-1H-indol-3-yl)ethyl)amino)−5-(trifluoromethyl)benzoic Acid]
activity at 10 µM [1]: 117 ± 1.2% | activity at 10 µM [2]: 92.5 ± 0.1% | activity at 10 µM [3]: 101.8 ± 0.4% | activity at 10 µM [4]: 82.2 ± 0.5% | activity at 10 µM [5]: 79.3 ± 3.7% | activity at 10 µM [6]: 126.6 ± 0.3% | activity at 10 µM [7]: 100.2 ± 0.6% | activity at 10 µM [8]: 71.1 ± 2% | activity at 10 µM [9]: 96.5 ± 1.8% | activity at 10 µM [10]: 79.9 ± 0.7% | activity at 10 µM [11]: 92.7 ± 3.3% | activity at 10 µM [12]: 101 ± 0.2% | activity at 10 µM [13]: 90.9 ± 3.2% | activity at 10 µM [14]: 98.2 ± 1.3% | activity at 10 µM [15]: 100.9 ± 0.9% | activity at 10 µM [16]: 34.9 ± 0.5% | activity at 10 µM [17]: 89.6 ± 2% | activity at 10 µM [18]: 102 ± 3% | activity at 10 µM [19]: 27.5 ± 6.5% | activity at 10 µM [20]: 45.4 ± 0.9% | activity at 10 µM [21]: 109.6 ± 0.2% | activity at 10 µM [22]: 88.1 ± 0.3% | activity at 10 µM [23]: 104.3 ± 0.7% | activity at 10 µM [24]: 97.8 ± 0.3% | activity at 10 µM [25]: 81.6 ± 0.5% | activity at 10 µM [26]: 50.8 ± 1.3% | activity at 10 µM [27]: 93.3 ± 1.1% | activity at 10 µM [28]: 93.7 ± 1.2% | activity at 10 µM ([29]; CDK5/P25): 48.6 ± 1.3% | activity at 10 µM ([29]; CDK5/P35): 88.8 ± 0.3% | activity at 10 µM [30]: 87.8 ± 1% | activity at 10 µM [31]: 92.7 ± 1.5% | activity at 10 µM [32]: 67.3 ± 1.4% | activity at 10 µM [33]: 124.8 ± 0.6% | activity at 10 µM [34]: 107.9 ± 0.2% | activity at 10 µM [35]: 90 ± 2% | activity at 10 µM [36]: 69.1 ± 1% | activity at 10 µM [37]: 105 ± 1.5%
